Laboratory results: patent US12275707B2, “Modulators of mas-related g-protein receptor X2 and related products and methods” (Escient Pharmaceuticals, Inc., priority 2020, dated 2025)

molecular target: T1, human MRGPR X2 (Homo sapiens, UniProt Q96LB1); experiment: MRGPR X2 activity, IP-One Gq HTRF antagonist assay versus 0.3 μM Cortistatin-14; assay type: cell-based; settings: CHO cells expressing human MRGPR X2; versus 0.3 μM Cortistatin-14 agonist; IP-1 HTRF; read-out: MRGPRX2 Antagonist Activity
T1 construct: expressed in transfected cells
T1 sequence (Q96LB1 1-330): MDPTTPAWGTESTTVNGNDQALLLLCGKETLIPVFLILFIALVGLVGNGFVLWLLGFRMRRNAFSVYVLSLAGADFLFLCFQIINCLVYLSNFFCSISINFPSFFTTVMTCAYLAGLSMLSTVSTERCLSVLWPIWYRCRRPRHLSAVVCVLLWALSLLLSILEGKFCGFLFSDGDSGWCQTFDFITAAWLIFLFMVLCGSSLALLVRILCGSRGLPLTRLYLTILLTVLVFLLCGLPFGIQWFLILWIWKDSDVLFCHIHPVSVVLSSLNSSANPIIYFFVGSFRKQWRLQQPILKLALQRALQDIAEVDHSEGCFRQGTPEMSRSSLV
Protocol: CHO cells stably transfected to express human MRGPR X2 were maintained in an incubator at 37° C. with 5% CO2 and grown in F12 (HAM) media with 10% fetal bovine serum (FBS), 1% Glutamax, 1% penicillin/streptomycin, 800 μg/mL Geneticin (G418), and 300 μg/mL Hygromycin B.
Cells were plated in a 384-well assay plate at 20,000 cells per well in 12 μL of Opti-MEM and kept in an incubator overnight. On the day of the assay, compounds solubilized at 10 mM in DMSO were added as a 10-point curve (30 μM final top concentration with 1:3 serial dilutions) using a Tecan D300E digital dispenser. Agonists were diluted in assay buffer (final concentrations of 5.7 mM Tris-HCl, 43 mM NaCl, 50 mM LiCl, pH=8) and 2 μL of the agonist Cortistatin-14 (CPC Scientific, catalog CORT-002) are added to each well. Final concentrations of agonists were 0.3 μM Cortistatin. Final concentrations of DMSO were kept consistent across the plate. Plates were incubated in the dark for 1 h at 37° C. and then for 1 h at room temperature. IP-1 standards and HTRF detection reagents were added according to the IP-One—Gq Kit purchased from Cisbio (part number 62IPAPEJ) and incubated in the dark for 1 h at room temperature. The plate was read on a Molecular Devices SpectraMax iD5 plate reader. The HTRF ratio was calculated from the raw data and graphed using GraphPad Prism to calculate an IC50 value for each compound.
The activity ranges are denoted as follows: “+++++” denotes antagonist activity<100 nM; “++++” denotes antagonist activity between 100 and 500 nM; “+++” denotes activity between 501 and 1000 nM; “++” denotes activity between 1001 and 2500 nM; and “+” denotes activity>2500 nM

| Structure (SMILES) | IC50 [nM] |
| --- | --- |
| O=C(N[C@@H]1CCC[C@H](Nc2cc(C(F)(F)F)nc3ccccc23)C1)C1(c2cnccn2)CC1 (racemic) [Example 4-29] | 1000 to 2500 |
| COc1ccc(COc2cc(C(=O)N[C@@H]3CCC[C@H](Nc4cc(C(F)(F)F)nc5ccccc45)C3)on2)cc1 (racemic) [Example 4-35] | 1000 to 2500 |
| CCCc1nnsc1C(=O)N[C@@H]1CCC[C@H](Nc2cc(C(F)(F)F)nc3ccccc23)C1 (racemic) [Example 4-40] | 1000 to 2500 |
| CC(C)Cc1cc(C(=O)N[C@@H]2CCC[C@H](Nc3cc(C(F)(F)F)nc4ccccc34)C2)n(C)n1 (racemic) [Example 4-90] | 1000 to 2500 |
| O=C(CN1C(=O)COc2ccccc21)N[C@@H]1CCC[C@H](Nc2cc(C(F)(F)F)nc3ccccc23)C1 (racemic) [Example 4-100] | 1000 to 2500 |
| COc1ccc(C(=O)N[C@@H]2CCC[C@H](Nc3cc(C(F)(F)F)nc4ccc(Cl)cc34)C2)cc1 [Example 1, N-((1R,3S)-3-((6-chloro-2-(trifluoromethyl)quinolin-4-yl)amino)cyclohexyl)-4-methoxybenzamide] | < 100 |
| O=C(N[C@@H]1CCC[C@H](Nc2cc(C(F)(F)F)nc3ccccc23)C1)c1ccc(F)cc1 [Example 1-8] | 100 to 500 |
| O=C(N[C@@H]1CCC[C@H](Nc2nc(C(F)(F)F)nc3ccccc23)C1)c1ccc(F)cc1 [Example 3, 4-fluoro-N-[(1R,3S)-3-[[2-(trifluoromethyl)quinazolin-4-yl]amino]cyclohexyl]benzamide] | 501 to 1000 |
| N#Cc1ccccc1C(=O)N[C@@H]1CCC[C@H](Nc2cc(C(F)(F)F)nc3ccccc23)C1 [Example 3-6] | 100 to 500 |
| Cc1nc(N(C)C)ccc1C(=O)N[C@@H]1CCC[C@H](Nc2cc(C(F)(F)F)nc3ccccc23)C1 [Example 4-22] | 1000 to 2500 |
| O=C(N[C@@H]1CCC[C@H](Nc2cc(C(F)(F)F)nc3ccccc23)C1)c1cccc(N2CCCC2=O)c1 [Example 4-172] | 1000 to 2500 |

Now from value to molecule:

| IC50 [nM] | Structure (SMILES) |
| --- | --- |
| 1000 to 2500 | N#CC1(C(=O)N[C@@H]2CCC[C@H](Nc3cc(C(F)(F)F)nc4ccccc34)C2)CC1 [Example 4-183] |
| 100 to 500 | O=C(N[C@@H]1CCC[C@H](Nc2cc(C(F)(F)F)nc3ccc(Cl)cc23)C1)c1cccc(F)c1 [Example 4-239] |
| < 100 | CCS(=O)(=O)Nc1cccc(C(=O)N[C@@H]2CCC[C@H](Nc3cc(C(F)(F)F)nc4ccc(Cl)cc34)C2)c1 [Example 4-241] |
| < 100 | O=C(N[C@@H]1CCC[C@H](Nc2cc(C(F)(F)F)nc3ccc(Cl)cc23)C1)c1cnn(C(F)F)c1 [Example 4-399] |
| < 100 | O=C(N[C@@H]1CCC[C@H](Nc2cc(C(F)(F)F)nc3ccc(Cl)cc23)C1)c1ccc(F)nc1 [Example 4-411] |
| < 100 | N#CCCn1ncc(C(=O)N[C@@H]2CCC[C@H](Nc3cc(C(F)(F)F)nc4ccc(Cl)cc34)C2)c1Cl [Example 4-420] |
| < 100 | CN(C)c1ccc(C(=O)N[C@@H]2CCC[C@H](Nc3cc(C(F)(F)F)nc4ccc(F)cc34)C2)cc1 [Example 4-421] |
| < 100 | CN(C)c1ncc(C(=O)N[C@@H]2CCC[C@H](Nc3cc(C(F)(F)F)nc4ccc(Cl)cc34)C2)s1 [Example 4-422] |
| < 100 | O=C(N[C@@H]1CCC[C@H](Nc2cc(C(F)(F)F)nc3ccc(Cl)cc23)C1)c1cnc(NCCF)nc1 [Example 4-423] |
| < 100 | O=C(N[C@@H]1CCC[C@H](Nc2cc(C(F)(F)F)nc3ccc(Cl)cc23)C1)c1ccsn1 [Example 4-425] |
| < 100 | Nc1ncc(C(=O)N[C@@H]2CCC[C@H](Nc3cc(C(F)(F)F)nc4ccc(Cl)cc34)C2)cn1 [Example 15, 2-amino-N-[(1R,3S)-3-{[6-chloro-2-(trifluoromethyl)quinolin-4-yl]amino}cyclohexyl]pyrimidine-5-carboxamide] |
| < 100 | O=C(N[C@@H]1CCC[C@H](Nc2cc(C(F)(F)F)nc3ccc(Cl)cc23)C1)c1ccn(CCF)c1 [Example 19, N-((1R,3S)-3-((6-chloro-2-(trifluoromethyl)quinolin-4-yl)amino)cyclohexyl)-1-(2-fluoroethyl)-1H-pyrrole-3-carboxamide] |

test system: Human LAD2 cells; experiment: Mast Cell Beta-Hexosaminidase Release Assay (500 nM Cortistatin-14); assay type: cell-based; settings: read-out: MRGPRX2 Antagonist Activity
Protocol: Human LAD2 cells (NIH) were maintained in an incubator at 37° C. with 5% CO2 and cultured in StemPro-34 serum-free media (Gibco 10639011) supplemented with 2 mM L-glutamine, 100 U/ml penicillin, […] streptomycin and 100 ng/ml SCF (Invitrogen PEP0860), at a concentration of 2-5×10^5 cells/mL, with hemidepletion every 1-2 weeks.
Cells were transferred to SCF-Free medium at 2.5×10^5 cells/mL and kept in an incubator overnight. On the day of the assay, cells were washed twice in Assay Buffer (final concentrations 10 mM HEPES, 137 mM NaCl, 5.6 mM D-glucose, 2.7 mM KCl, 1 mM MgCl, 1.8 mM CalCl2, 0.4 mM Na2HPO4·7H2O, 0.04% BSA, pH=7.4) and plated in a 96-well v-bottom plate at 20,000 cells per well in 80 μL Assay Buffer. […] After incubation, 50 μL of 400 mM Glycine buffer (pH 10.7) was added into each well and the plate was read on a Molecular Devices SpectraMax iD5 plate reader (absorbance at 405 nm with reference filter at 620 nm). After background subtraction, the percentage degranulation (percent beta-hexosaminidase release) was calculated as 100×(supernatant values)/(supernatant+lysate values), followed by analysis using GraphPad Prism software to calculate an IC50 value for each compound. […]

| IC50 [nM] | Structure (SMILES) |
| --- | --- |
| < 100 | N#CCCn1ncc(C(=O)N[C@@H]2CCC[C@H](Nc3cc(C(F)(F)F)nc4ccc(Cl)cc34)C2)c1Cl [Example 4-420] |

test system: not listed separately; experiment: Mouse Pharmacokinetics Studies; assay type: in vivo; settings: male, C57BL/6, mouse, plasma, po, 50 mg/kg, male C57BL/6 mice, 50 mg/kg oral gavage, non-fasted, read-out: AUC 0-24
Protocol: Compounds were formulated in 5% DMSO, 5% Solutol, and 90% PBS without Ca and Mg (pH 7.4) at a concentration of 5 mg/mL. Male C57BL/6 mice (n=3/compound) were administered a 50 mg/kg dose of each compound by oral gavage under a non-fasted condition. Blood samples were collected via the saphenous vein onto K2-EDTA at 0.25, 0.5, 1, 2, 4, 8 and 24 hours after dosing, and plasma was prepared and stored at −80° C. until analysis. Plasma sample preparation for analysis was done by protein precipitation using acetonitrile (including Verapamil as an internal standard) followed by centrifugation. Compound concentrations were determined in extracted plasma using LC-MS/MS relative to a 12 point standard curve covering the 1 to 4000 nM range. Non-compartmental analysis using Phoenix WinNonlin was used to estimate pharmacokinetic parameters including area under the curve, clearance, and half-life. The administered dose was confirmed by analysis of residual dosing material by UPLC-UV relative to a single point calibration sample.

| AUC(0-t) [µM·h] | Structure (SMILES) |
| --- | --- |
| 43 | O=C(N[C@@H]1CCC[C@H](Nc2cc(C(F)(F)F)nc3ccc(Cl)cc23)C1)N1CC2(CC2)C1 [Example 6-9] |

same assay, conditions: male, C57BL/6, mouse, plasma, po, 50 mg/kg, male C57BL/6 mice, 50 mg/kg oral gavage, non-fasted, read-out: AUC 0-last

| AUC(0-t) [µM·h] | Structure (SMILES) |
| --- | --- |
| 42 | O=C(N[C@@H]1CCC[C@H](Nc2cc(C(F)(F)F)nc3ccc(Cl)cc23)C1)N1CC2(CC2)C1 [Example 6-9] |

same assay, conditions: mouse; male C57BL/6 mice, 50 mg/kg oral gavage, non-fasted, plasma

| Cmax [µM] | Structure (SMILES) |
| --- | --- |
| 5.1 | O=C(N[C@@H]1CCC[C@H](Nc2cc(C(F)(F)F)nc3ccc(Cl)cc23)C1)N1CC2(CC2)C1 [Example 6-9] |

same assay, conditions: mouse; male C57BL/6 mice, 50 mg/kg oral gavage, non-fasted, plasma; read-out: PK: Tmax

| Tmax [h] | Structure (SMILES) |
| --- | --- |
| 3.3 | O=C(N[C@@H]1CCC[C@H](Nc2cc(C(F)(F)F)nc3ccc(Cl)cc23)C1)N1CC2(CC2)C1 [Example 6-9] |
